The values that follow come from US7045536B2, “Compound having anti-viral activity” (Industrial Technology Research Institute, priority 2003, dated 2006).

One data set relates to enterovirus type 71. Kind of data set: Neutralization test. The settings on record: concentration of 10 mg/ml; RD cells, crystal violet OD570nm. It counts as cell-based, enterovirus 71/Tw/2231/98. The method, then: In this embodiment, enterovirus 71/Tw/2231/98 obtained from Virology Lab of Chang Gung Memorial Hospital is diluted with fetal bovine serum free culture medium. Culture the RD cells in DMEM containing 10% fetal bovine serum. When the cells are 90% cultured, wash with 1×PBC once and add the aforesaid diluted virus fluid into the culture medium. Place the medium in the 5% CO2, 35° C. incubator for inoculation for one hour and then add DMEM containing 2% fetal bovine serum. Place the medium in 5% CO2, 35° C. incubator. When over 95% of the cells become round and drop off, collect the supernatant. After centrifuge, freezing and thawing, refrigerate the virus supernatant under −80° C.
In this embodiment, cultured cells from Embodiment 3 are cultured in 96-well plate. After mixing fixed-quantity of virus fluid with the tested compound, add in culture medium for inoculation for one hour, and then add in DMEM containing 2% fetal bovine serum. Place the medium in 5% CO2, 35° C. incubator for 3–4 days. To read the test result, add 5% formalin to fixate for 1–2 hours and dye with 0.1% crystal violet for 2–3 minutes. Rinse with water and measure OD570nm values.

In the next data set the test system is RD cells. In words: Toxicity test. It is filed as cell-based. The following applies: 3-4 days, crystal violet OD570nm. Here is the method: In this embodiment, rhabdomyosarcoma (RD) cells obtained from the Virology Lab of Chang Gung Memorial Hospital are cultured in DMEM (Gibco) containing 10% fetal bovine serum and placed in 5% CO2, 37° C. incubator. In successive culture, the cells are rinsed twice with 1× PBS and then added with proper amount of 0.25% trypsin-EDTA (Gibco) for cell treatment. After the cells drop off from the surface of culture dish, add DMBM medium containing 10% fetal bovine serum to disperse the cells evenly in the culture dishes. Place the dishes into 5% CO2, 37° C. incubator to continue the culturing.
In this embodiment, cultured cells from Embodiment 3 are cultured in 96-well plate. After the cells are mixed with the tested compound for one hour, add DMEM containing 2% fetal bovine serum, and place the medium in 5% CO2, 35° C. incubator for 3–4 days. To read the test result, add 5% formalin to fixate for 1–2 hours and dye with 0.1% crystal violet (J. T. Baker) for 2–3 minutes. Rinse with water and measure OD570nm values.

As a reminder, the LC50 is the concentration lethal to half of the exposed cells or organisms. A high value points to a less lethal substance.

As for `C[n+]1ccn(CC(O)Cn2cc[n+](C)c2)c1.[Br-].[Br-]` [dibromo 1,1′-glyceryl-bis (3-methyl-1H-imidazole)], the “inhibitory effect on enterovirus type 71” value in the data set on enterovirus type 71 came out at 32%. For the same compound, the LC50 in the data set on RD cells is 8400 µg/mL.
Regarding `OC(C[n+]1ccccc1)C[n+]1ccccc1.[Br-].[Br-]` [dibromo 1,1′-glyceryl-bispyridine], the “inhibitory effect on enterovirus type 71” value with enterovirus type 71 is given as 30%. The LC50 in the data set with RD cells came to 9200 µg/mL.
